The values below come from patent US4129648A, “Method for reducing endogenous prostaglandin synthesis” (priority 1977, dated 1978).

In the assay the test system is prostaglandin synthetase of bovine seminal vesicles. Kind of assay: Inhibition of conversion of arachidonic acid into PGE2 and PGF2α by BSV prostaglandin synthetase, cascade bioassay. The assay is classed as biochemical. How it is done:
The high molecular weight mammalian blood plasma or serum extract of the present invention was tested for PG synthesis-inhibiting properties by determining the ability of the extract to inhibit the conversion of arachidonic acid into PGE2 and PGF2α by PG synthetase present in BSV, in the presence of optimal amounts of the cofactor glutathione, (reduced form). Specifically, the inhibitory properties of the extract were determined by a cascade bioassay technique [Collier et al., Brit. J. Pharmac., 58, 193-199 (1976)] involving measurement of prostaglandin activity against response.
The ability of the purified mammalian serum extract to inhibit the enzymatic conversion of arachidonic acid by prostaglandin synthetase obtained from BSV was determined by bioassay on tissues which are known to be contracted by naturally occurring PGs. Segments of rat or hamster stomach fundus (stomach strip) were obtained as described in Brit. J. Pharmacol. Vol. 5, 173 (1950), Vol. 6, 32 (1953), Vol. 12, 344 (1957), and Vol. 23, 351 (1964). […]
A dose of standard PGE2 is put over the tissues by means of the roller pump and the tissue response measured by recording the tissue contraction. […] Alternately, the protein content of the solution can be determined by known techniques, such as the biuret reaction or Kjeldahl method, and the test value expressed in ng. […]

Regarding “haptoglobin obtained from Cohn subfraction IV4 by the above procedure: haptoglobin from Cohn subfraction IV4 by second procedure: ethacridine lactate precipitation and chromatography”, the “Inhibition of PG synthesis (in words)” value was “demonstrated an ability to inhibit”.
